Results published in patent US20050069544A1, “Pharmaceutical composition and a method of treatment” (priority 1998, published 2005).

What was measured:
[1] = test system: PBMC from AIHA patients; assay: celELISA of cytokine production by PBMC from AIHA patients; assay type: cell-based, human; conditions: AIHA patient (AIHA26); FIG. 24A
Experimental: Cultured T-cells are stimulated with each of the epitopes given in Table 1 and after 5 days the responding cells were transferred to flat-bottomed microtitre plates (96-well Nunc-Immuno Maxisorp) coated with […] per well of monoclonal anti-cytokine capture antibody diluted in 0.05M alkaline carbonate coating buffer pH 9.6. Unbound capture antibody was removed by two washes with HBSS and non-specific binding potential blocked by incubation with 200 μl per well of phosphate buffered saline, pH 7.4 (PBS containing 3% BSA). […]
After six washes with 0.5% Tween/PBS, 100 μl of 1:100,000 ExtrAvidin-alkaline phosphatase conjugate (Sigma) was then added to each of the wells and incubated at room temperature for 30 minutes. […] The absorbance at 405 nm was then measured using a Multiscan plate reader (Labsystems Basingstoke UK).
Cytokine secretion was measured by interpolation from a standard curve generated by incubating duplicate wells with doubling dilutions of recombinant human IFN-γ or IL-10 or TGF-β (Pharmingen). The standard curves were modelled by a smoothed cubic spline function applied to the absorbance reading and the cytokine concentrations after a quasilogarithmic transformation, where: quasiloge(z)=loge[z+{square root}[z^2+1]). […]

[2] = test system: CD3+ CD4+ T-helper cells of AIHA patients; assay: Flow cytometry of CD3, CD4 and intracellular cytokines in PBMC from AIHA patients; assay type: cell-based, human; conditions: AIHA patient; FIGS. 24B to 24E
Experimental: The secretion of cytokines identified in Example 1.3 by T-helper cells is confirmed by flow cytometery analysis. Simultaneous measurement of surface molecules CD3 and CD4 and intracellular cytokines IFN-γ or IL-10 was carried out using three colour flow cytometry analysis in PBMC, isolated from RhD-alloimmunised donors, cultured with either no antigen or RhD peptide for five days after stimulation. All analysis was carried out using Expo v2 analysis software (applied Cytometry Systems). The CD3+ T-cells were gated open and the numbers of IFN-γ+ and CD4+ cells were assessed. In all donors tested there was a significant increase in the proportion of CD4+ IFN-γ+CD3+ T-cells to at least one of the RhD peptides tested. In the representative example shown in FIGS. 12A to 12L it can be seen that the proportion of CD4+ IFN-γ+cells was 4.2% in unstimulated cultures (FIG. 12E). […] The IL-10 and CD4+ expression was also assessed on CD3+ gated population of T-cells. In PBMC cultures isolated from the alloimmune donor shown, there was an increase in the proportion of CD4+ IL-10+T-cells from 2.4% in unstimulated PBMC cultures (FIG. 12I) to 6.5% in culture stimulated with RhD peptide 13 (FIG. 12J) to 6.2% in cultures stimulated with RhD peptide 17 (FIG. 12K) and 5.9% with RhD peptide 28 (FIG. 12L).
The secretion of cytokines identified in Example 2.3 by T-cells is confirmed utilising the experiments mentioned in Example 1.4, which were repeated using PBMC isolated from patients with AIHA.

WMFWPSFNSALLRSP (Residue 217-231 RhD; listed as Homo sapiens) [compound 36]
IL-10 production by PBMC [1]: induces the production of IL-10
CD3+ CD4+ T helper cells expressing intracellular IL-10 [2]: expansion of a CD3+ CD4+population of T helper cells
